# Test results as given in US20090317373A1, “Inhibition of the Anti-FVIII Immune Response” (Institut National De La Sante Et De La Recherche Medicale, priority 2005, published 2009).
# T1: binding of CTLD(4-7)-Fc to FVIII-BDD (UniProt P00451+Q61830, DEL763-1656)
# T1 construct: CTLD(4-7)-Fc a gift of Dr L. Martinez-Pomares
# T1 sequence (P00451 with tags, fused parts or gaps DEL763-1656 limits assumed): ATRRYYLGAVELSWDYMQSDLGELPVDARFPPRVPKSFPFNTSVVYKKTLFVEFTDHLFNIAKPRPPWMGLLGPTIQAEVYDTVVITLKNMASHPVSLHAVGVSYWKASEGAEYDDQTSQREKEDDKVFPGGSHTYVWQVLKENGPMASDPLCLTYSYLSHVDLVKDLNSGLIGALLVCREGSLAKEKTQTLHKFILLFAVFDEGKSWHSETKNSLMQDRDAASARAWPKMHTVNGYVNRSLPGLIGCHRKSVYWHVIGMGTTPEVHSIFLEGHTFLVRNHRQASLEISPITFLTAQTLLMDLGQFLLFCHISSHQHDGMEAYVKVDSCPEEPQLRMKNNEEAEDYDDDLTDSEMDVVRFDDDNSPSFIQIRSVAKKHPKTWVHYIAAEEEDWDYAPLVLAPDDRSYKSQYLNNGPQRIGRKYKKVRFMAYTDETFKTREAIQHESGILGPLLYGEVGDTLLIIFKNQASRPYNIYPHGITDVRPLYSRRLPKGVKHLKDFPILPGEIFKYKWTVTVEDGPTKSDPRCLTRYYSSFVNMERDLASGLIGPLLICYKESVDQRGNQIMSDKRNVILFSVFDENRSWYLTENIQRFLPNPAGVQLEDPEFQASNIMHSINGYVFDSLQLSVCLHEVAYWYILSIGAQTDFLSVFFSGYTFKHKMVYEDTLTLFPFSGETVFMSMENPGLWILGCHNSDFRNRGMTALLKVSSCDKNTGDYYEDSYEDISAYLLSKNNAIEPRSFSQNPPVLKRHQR
# T1 sequence (P00451 1668-2351 limits assumed): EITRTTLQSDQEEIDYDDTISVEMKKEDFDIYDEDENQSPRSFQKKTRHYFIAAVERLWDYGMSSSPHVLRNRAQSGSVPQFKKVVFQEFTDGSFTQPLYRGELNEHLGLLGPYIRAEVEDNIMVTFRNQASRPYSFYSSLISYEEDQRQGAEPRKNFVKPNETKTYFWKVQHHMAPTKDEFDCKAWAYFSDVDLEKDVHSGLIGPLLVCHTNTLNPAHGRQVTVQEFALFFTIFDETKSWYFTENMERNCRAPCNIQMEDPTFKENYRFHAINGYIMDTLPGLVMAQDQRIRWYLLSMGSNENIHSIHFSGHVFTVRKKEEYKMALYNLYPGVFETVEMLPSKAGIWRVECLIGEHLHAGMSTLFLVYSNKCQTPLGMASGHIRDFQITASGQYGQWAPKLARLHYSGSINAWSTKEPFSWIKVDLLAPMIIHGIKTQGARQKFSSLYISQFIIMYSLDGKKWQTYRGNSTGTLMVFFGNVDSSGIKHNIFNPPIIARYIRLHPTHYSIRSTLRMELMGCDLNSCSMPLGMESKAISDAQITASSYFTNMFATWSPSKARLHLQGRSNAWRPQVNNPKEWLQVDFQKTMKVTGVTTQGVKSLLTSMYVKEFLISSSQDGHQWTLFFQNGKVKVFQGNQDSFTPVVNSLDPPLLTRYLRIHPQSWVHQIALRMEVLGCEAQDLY
# T1 sequence (Q61830 20-1456): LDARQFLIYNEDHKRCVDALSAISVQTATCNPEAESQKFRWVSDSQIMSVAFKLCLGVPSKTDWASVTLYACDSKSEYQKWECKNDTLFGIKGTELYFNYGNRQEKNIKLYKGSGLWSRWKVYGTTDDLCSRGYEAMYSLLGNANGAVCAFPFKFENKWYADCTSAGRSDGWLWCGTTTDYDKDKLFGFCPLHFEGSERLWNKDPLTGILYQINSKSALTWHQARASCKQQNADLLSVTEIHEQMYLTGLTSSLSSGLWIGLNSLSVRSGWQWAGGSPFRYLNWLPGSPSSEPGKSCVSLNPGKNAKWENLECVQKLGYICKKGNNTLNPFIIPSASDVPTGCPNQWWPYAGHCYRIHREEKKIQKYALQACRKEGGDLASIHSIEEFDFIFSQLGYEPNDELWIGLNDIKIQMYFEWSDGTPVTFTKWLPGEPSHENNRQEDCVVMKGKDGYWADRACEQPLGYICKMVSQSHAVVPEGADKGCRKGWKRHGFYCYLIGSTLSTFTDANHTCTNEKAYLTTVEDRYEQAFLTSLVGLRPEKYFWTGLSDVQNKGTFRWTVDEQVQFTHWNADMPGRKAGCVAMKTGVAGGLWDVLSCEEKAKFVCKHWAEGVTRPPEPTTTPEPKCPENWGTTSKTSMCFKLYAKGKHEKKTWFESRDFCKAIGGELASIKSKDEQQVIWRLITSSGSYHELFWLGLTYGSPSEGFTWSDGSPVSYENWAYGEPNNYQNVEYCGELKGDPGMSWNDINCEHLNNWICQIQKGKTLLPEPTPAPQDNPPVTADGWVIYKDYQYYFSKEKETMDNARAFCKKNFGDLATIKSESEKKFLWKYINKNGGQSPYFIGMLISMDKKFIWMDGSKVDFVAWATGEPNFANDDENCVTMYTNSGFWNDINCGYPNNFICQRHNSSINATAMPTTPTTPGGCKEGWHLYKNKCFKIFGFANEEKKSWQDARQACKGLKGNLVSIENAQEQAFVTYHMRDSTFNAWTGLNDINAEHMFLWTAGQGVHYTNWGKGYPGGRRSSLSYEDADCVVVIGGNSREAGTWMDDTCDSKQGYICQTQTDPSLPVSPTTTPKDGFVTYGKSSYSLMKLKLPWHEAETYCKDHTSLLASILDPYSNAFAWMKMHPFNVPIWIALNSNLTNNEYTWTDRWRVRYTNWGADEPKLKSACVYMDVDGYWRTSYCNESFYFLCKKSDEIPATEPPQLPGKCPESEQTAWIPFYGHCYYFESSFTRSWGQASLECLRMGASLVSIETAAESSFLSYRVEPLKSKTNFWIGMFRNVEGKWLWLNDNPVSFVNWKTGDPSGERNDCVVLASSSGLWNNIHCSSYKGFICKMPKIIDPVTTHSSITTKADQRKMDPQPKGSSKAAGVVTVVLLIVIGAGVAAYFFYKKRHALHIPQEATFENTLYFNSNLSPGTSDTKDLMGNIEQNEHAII
# B1: RAP: receptor-associated protein of 38 kD, blocks endocytosis of ligands by LDL receptor family members such as CD91/LRP (protein, UniProt P30533 35-357, looked up)
# Alpha-2-macroglobulin …: YSREKNQPKPSPKRESGEEFRMEKLNQLWEKAQRLHLPPVRLAELHADLKIQERDELAWKKLKLDGLDEDGEKEARLIRNLNVILAKYGLDGKKDARQVTSNSLSGTQEDGLDDPRLEKLWHKAKTSGKFSGEELDKLWREFLHHKEKVHEYNVLLETLSRTEEIHENVISPSDLSDIKGSVLHSRHTELKEKLRSINQGLDRLRRVSHQGYSTEAEFEEPRVIDLWDLAQSANLTDKELEAFREELKHFEAKIEKHNHYQKQLEIAHEKLRHAESVGDGERVSRSREKHALLEGRTKELGYTVKKHLQDLSGRISRARHNEL
# Experiments:
# [1] = test system: D9E9 (T cell clone specific for FVIII); assay: In vitro activation of FVIII-specific T cell clone D9E9 (IFN-gamma production); format: cell-based, human; settings: antigen presented by DCs; IFNγ production; FIG. 4b
# Method: After washing, the DCs of Example 1 were resuspended in DMEM:F12 (1:1) medium containing 10% FCS and 10,000 DCs were introduced into each well of a 96-well cell culture plate with a round base. After incubation with mannan (1 mg/ml) in each well for 30 min, the DCs were cultured with 5,000 D9E9 (T cell clone specific for FVIII) in DMEM:F12 (1:1) medium containing 10% FCS and 20 U/ml of rhIL-2 with various doses of whole FVIII or FVIII-BDD (10, 8, 6, 4, 2 μg/ml) for 20 hours at 37° C. Like the D9E9 cells, the LE2E9 and BO2C11 lines of B cells transformed by EBV were cultured in the presence of 10 μg/ml of whole FVIII or FVIII-BDD. The control conditions were maintained in the absence of FVIII, D9E9 or DCs. As a negative control, hrFIX (Benefix, Baxter) was incubated with the cells at isomolar concentrations of FVIII. The supernatants were harvested at the end of the incubation period and tested for their production of IFNγ using the human IFN-γ Duo Set (DY285, R&D Systems) in accordance with the manufacturer's instructions.
# [2] = test system: human DCs derived from monocytes; assay: In vitro internalization of fluorescent ligands by human DCs derived from monocytes (flow cytometry); format: cell-based
# Method: DCs were prepared from monocytes as described previously (29) with a change in the culture media. Briefly, mononucleated cells were isolated from heparinized leukoplatelet layers (“buffy coats”) from healthy adult donors by adhesion on plastic cell culture dishes in RPMI 1640 medium supplemented with 10% human AB serum, glutamine and antibiotics for 60 minutes. Non-adhering cells were removed by 3 gentle washings with the medium. The adhering monocytes were cultured in X-VIVO 15 medium (Cambrex Bio Sciences, Paris, France) supplemented with 1% human AB serum and antibiotics and in the presence of 500 IU/ml of recombinant human interleukin-4 (rhIL-4), R&D Systems (Lille, France) and 1,000 IU/ml of recombinant human granulocyte macrophage colony-stimulating factor (rhGM-CSF), Immunotools (Friesoythe, Germany). Half of the medium, comprising all the supplements, was replaced every two days. After culture for 5 days, the non-adhering cells and those with little adhesion, corresponding to the fraction enriched in DC, were harvested, washed and used for subsequent experiments.
# Whole recombinant human FVIII (1,000 IU, Kogenate, Bayer) or B domain-deleted recombinant human FVIII (FVIII-BDD) (1,000 IU, Refacto, Wyeth) were solubilized in water and dialyzed against bicarbonate buffer (pH 9.2) containing CaCl2, 5 mM at 4° C., followed by coupling to fluorescein 5-isothiocyanate (isomer I, Sigma-Aldrich, Saint Quentin Fallavier, France) for 7-8 hours at 4° C. The labelled FVIII was then dialyzed against RPMI 1640 medium to remove non-coupled FITC. The FVIII-FITC was quantified by the Bradford method using bovine serum albumin as the standard.
# The DCs obtained in Example 1 (0.4×10^5 cells/well of a 96-well plate with 100 μl/well) were incubated with various doses (0.029, 0.057, 0.143 and 0.358 μM) of fluorescent conjugated ligands (FVIII-FITC, BDD-FVIII-FITC) obtained in Example 2 in X-VIVO medium for 0, 15, 60 and 120 min at 4° C. or at 37° C. After the incubation period, the cells were washed with cold PBS and analyzed by flow cytometry. To investigate the involvement of receptors in the internalization, the cells were preincubated for 30 min at 37° C. with […] and 1 mg/ml of mannan (Sigma-Aldrich, Saint Quentin Fallavier, France) before the addition of ligands conjugated to fluorescein. In addition to FVIII-FITC and FVIII-BDD-FITC, human α2-macroglobulin-MA (α2M) conjugated to FITC from Biomac (Leipzig, Germany), dextran-FITC (molecular weight 40,000) from Molecular Probes (Leiden, The Netherlands) and Lucifer yellow (LY-CH) from Sigma-Aldrich were used. The investigation of the internalization of FVIII was also carried out in the presence of 20 μg/ml of anti-mannose receptor monoclonal antibody (PAM-1, isotype IgG1) or anti-DC-SIGN monoclonal antibody ((AZN-D1, isotype IgG1) or mouse IgGλ,k conjugated to PE-Cy (BD Pharmingen, France). To investigate whether DC-SIGN is involved in the endocytosis of FVIII, the B lymphocyte line HD-420 transformed by wild-type EBV and transfected with DC-SIGN or not transfected was incubated with various concentrations of FVIII-FITC (0, 0.036, 0.072 and 0.143 μM) for 2 hours in RPMI 1640 medium supplemented with 10% FCS (foetal calf serum) and antibiotics. The analysis was carried out as for the DCs.
# [3] = molecular target: T1, binding of CTLD(4-7)-Fc to FVIII-BDD; assay: ELISA: influence of VWF on binding of CTLD(4-7)-Fc to immobilized FVIII-BDD; settings: soluble VWF in a VWF:FVIII ratio excess; FIG. 9
# Method: ELISA plates are coated with FVIII-BDD (5.56 μg/ml, 0.033 μM). VWF (0 to 1 μM) is incubated with 10 μg/ml of the construct CTLD(4-7)-Fc for 30 min at room temperature and added to immobilized FVIII-BDD.
# [4] = cells preincubated with 5 mM EDTA
molecule,measurement,setting,value
"FIX: hrFIX (Benefix, Baxter), negative control",activation of D9E9 cells,[1],absence of proliferation
"O=C(O)CN(CCN(CC(=O)O)CC(=O)O)CC(=O)O [EDTA, reference compound]",inhibition of internalization of FVIII-BDD by immature DCs,[2]; [4],62.4±11.4%
same,inhibition of internalization of whole FVIII by immature DCs,[2]; [4],58.1±11.1%
"VWF: von Willebrand factor (Willefectin, LFB)",inhibition of interaction of CTLD(4-7)-Fc with immobilized FVIII,[3],43%
"O=C[C@H](O)[C@@H](O)[C@@H](O)[C@H](O)CO [D-galactose, reference compound]",reduction of internalization of FVIII,"[2]; D-galactose, independently of presence or absence of domain B",did not significantly reduce
B1,prevention of endocytosis of FVIII by the DCs,[2]; excess of RAP,did not allow the endocytosis of FVIII by the DCs to be prevented
same,inhibition of internalization of α2M,"[2]; excess of RAP or mannan, FIG. 2f",inhibited completely
